Reference: patent US20240024320A1, “METHODS OF TREATING CANCER WITH A COMBINATION OF TUCATINIB AND AN ANTI-PD-1/ANTI-PD-L1 ANTIBODY” (Seagen Inc., priority 2020, published 2024)
“Also recorded” adds a separate entry of the source.

Assays:
Fo5 tumors [1] = assay: ex vivo FACS analysis of trastuzumab resistant Fo5 tumors; type: in vivo, FVB mice
Procedure: Tumors were harvested after 10-14 days of tucatinib 50 mg/kg treatment for Fo5 tumors and analyzed by FACS.
In vivo mouse studies. Female MMTV/Balb/c and FVB mice between 6 to 8 weeks of age were utilized for experiments. Treatment groups consisted of n=5 to 8 mice per group. […] Randomization and treatment commenced at approximately day 10 post-inoculation for the H2N113 tumor model with tumor sizes varying between 40 to 80 mm^3 and approximately day 14 for the Fo5 tumor model with tumor sizes varying between 60 to 120 mm^3. Tumor volumes were calculated using the equation […], where length and width refer to the larger and smaller dimensions collected at each measurement. […] Immunotherapy and isotype controls in both models were delivered on days 0, 4, 8, and 12. Tumor volumes were measured twice weekly with calipers. Survival was monitored and determined when the tumors reached an ethical limit of 1500 mm^3.
Flow cytometry analysis. For ex vivo studies, tumors were dissected, mechanically morcellated and passed through 70 μm filters. Cells were then resuspended in 30 μg/mL DNAse (Sigma-Aldrich) followed by Fc block (clone 2.4g2). Single cell suspensions were then stained with antibody cocktails for various TIL subsets. In some experiments, isolated cells were stimulated with phorbol 12-myristate 13-acetate (PMA; 50 ng/mL) and ionomycin (1 μg/mL; Sigma-Aldrich) in the presence of GolgiPlug (BD Biosciences; 1:1000) and GolgiStop (BD Biosciences; 1:1500) for 3 to 4 hours prior to flow cytometry analysis. Samples were analyzed by FACS with either Fixable Yellow or Zombie Red to discriminate viable and dead cells. BD fluorosphere counting beads were added to cocktails before running sample.

H2N113 tumors [2] = type: in vivo
Fo5 tumors [3] = assay: ex vivo RNA sequencing / gene expression analysis of Fo5 tumors; type: in vivo, FVB mice
Procedure: The harvested tumors were then processed for stranded polyA RNA sequencing. […] Columns represent individual tumor samples and rows are individual genes.
Genomic analysis of mouse samples. RNA was extracted from Fo5 tumors treated in vivo with tucatinib at 50 mg/kg or vehicle (methyl cellulose, 0.5%) for 10 days using TRIzol® Reagent with the PureLink® RNA Mini Kit (Invitrogen™, Thermo Fisher Scientific, Waltham, MA, USA). Quantity and integrity of the total RNA was checked using a TapeStation 2200 (Agilent Technologies) and 500 ng used for library preparation according to standard protocols (NEBNext Ultra II Directional RNA Library Prep Kit for Illumina and NEBNext Poly(A) mRNA Magnetic Isolation Module, NEB). Indexed libraries were pooled and sequenced on a NextSeq500 flowcell (Illumina) to generate 25-50 million paired-end 75 bp reads per sample. Pre-processing and quantile normalization of microarray data was performed with the AFFY package in R. From normalized RNA intensities, unbiased, differential expression analysis and a short list of gene (FDR<0.05) was generated with the LIMMA package in R. Using the differentially expressed genes, pathway and molecular function enrichment analysis was performed in MetCore GeneCo. The GSEA software for gene set enrichment analysis was used with normalized RNA intensities. The false discovery rate was set at <10%. Top gene pathways were selected based on a P-value of <0.05 and a fold change of >1.5. All analyses were performed using R version 3.5.0. Gene sets for differential expression heat maps included interferon-γ 10-gene, preliminary expanded immune 28-gene, T cell inflamed 18-gene, and T-effector 6-gene signature sets, all of which have been associated with PD-1 or PD-L1 blockade amongst a range of tumor types, including breast cancer.

Fo5 tumors [4] = assay: Fo5 trastuzumab-resistant HER2-positive murine tumor model: tumor growth and survival; type: in vivo, FVB mice
H2N113 tumors [5] = type: in vivo; remark: listed apart in the source
BT474 = assay: growth inhibition assay (CellTitre-Glo), BT474; type: cell-based, human; details: BT474, dose-dependent cell growth inhibition; FIG. 5A
SKBR3 = assay: growth inhibition assay (CellTitre-Glo), SKBR3; type: cell-based, human; details: SKBR3, dose-dependent cell growth inhibition; FIG. 5B
H2N113 = assay: growth inhibition assay (CellTitre-Glo), H2N113; type: cell-based, murine; details: H2N113, dose-dependent cell growth inhibition; FIG. 5C
HER2 signaling pathway [6] = assay: Western blot for phosphor-HER2 and total HER2, Fo5 tumors; type: in vivo, FVB mice; details: Fo5 tumors treated with tucatinib vs vehicle; FIG. 11A
HER2 signaling pathway [7] = assay: Western blot for phosphor-HER2 and total HER2, H2N113 cells; type: cell-based, murine; details: H2N113 cells treated with tucatinib vs vehicle; FIG. 11B
HER2 = HER2 (Homo sapiens, UniProt P04626); details: cellular signaling assays; background statement; cited from earlier work
Sequence of HER2 (P04626 23-1255): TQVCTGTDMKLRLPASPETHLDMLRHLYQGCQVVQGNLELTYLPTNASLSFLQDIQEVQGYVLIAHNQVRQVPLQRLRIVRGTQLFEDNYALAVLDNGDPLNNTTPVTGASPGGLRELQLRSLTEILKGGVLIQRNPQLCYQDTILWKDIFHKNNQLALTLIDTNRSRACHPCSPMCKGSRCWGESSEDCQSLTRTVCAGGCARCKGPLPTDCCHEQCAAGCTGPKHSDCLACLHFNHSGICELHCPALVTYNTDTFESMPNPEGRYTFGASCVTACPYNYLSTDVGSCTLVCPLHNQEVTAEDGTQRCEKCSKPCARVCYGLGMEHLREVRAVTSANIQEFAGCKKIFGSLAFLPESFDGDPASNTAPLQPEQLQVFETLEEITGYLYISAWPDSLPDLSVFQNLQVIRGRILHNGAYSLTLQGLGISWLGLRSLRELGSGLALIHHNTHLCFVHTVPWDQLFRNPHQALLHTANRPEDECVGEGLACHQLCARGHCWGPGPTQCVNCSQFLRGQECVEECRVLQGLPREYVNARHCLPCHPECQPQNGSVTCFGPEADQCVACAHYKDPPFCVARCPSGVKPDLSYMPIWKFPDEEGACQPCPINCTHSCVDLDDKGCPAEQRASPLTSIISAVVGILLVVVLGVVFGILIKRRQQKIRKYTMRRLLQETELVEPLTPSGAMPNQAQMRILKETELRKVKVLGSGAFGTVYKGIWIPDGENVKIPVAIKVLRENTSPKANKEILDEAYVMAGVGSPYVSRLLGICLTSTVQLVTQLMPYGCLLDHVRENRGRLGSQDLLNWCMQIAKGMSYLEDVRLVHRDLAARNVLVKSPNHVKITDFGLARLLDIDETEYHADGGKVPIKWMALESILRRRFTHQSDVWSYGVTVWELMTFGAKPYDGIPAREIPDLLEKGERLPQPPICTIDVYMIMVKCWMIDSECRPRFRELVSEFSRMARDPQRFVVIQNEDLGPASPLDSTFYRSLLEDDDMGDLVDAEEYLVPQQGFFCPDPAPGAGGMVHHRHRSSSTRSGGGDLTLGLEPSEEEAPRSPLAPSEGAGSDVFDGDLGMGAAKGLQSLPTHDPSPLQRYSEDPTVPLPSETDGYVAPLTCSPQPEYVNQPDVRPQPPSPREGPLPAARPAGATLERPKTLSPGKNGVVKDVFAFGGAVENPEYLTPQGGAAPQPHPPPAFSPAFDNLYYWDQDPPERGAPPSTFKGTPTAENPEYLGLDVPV

[8] = Example 4, after 10 days of tucatinib, FIG. 16A-16B
[9] = Example 4, after 10 days of tucatinib, FIG. 16C-16D
[10] = Example 4, after 14 days of tucatinib treatment
[11] = Example 4, tucatinib treated tumors
[12] = tucatinib 100 mg/kg orally once daily, 14 days, FIG. 2L

Compound: Cc1cc(Nc2ncnc3ccc(NC4=NC(C)(C)CO4)cc23)ccc1Oc1ccn2ncnc2c1 [tucatinib, N^4-(4-([1,2,4]triazolo[1,5-a]pyridin-7-yloxy)-3-methylphenyl)-N-(4,4-dimethyl-4,5-dihydrooxazol-2-yl) quinazoline-4,6-diamine]
- interferon-7 expression in CD4+ effector memory T cell subset (Fo5 tumors [1]; [8]): increased
- interferon-7 expression in CD8+ effector memory T cell subset (Fo5 tumors [1]; [8]): increased
- PD-1+ expression in CD8+ effector memory T cells (Fo5 tumors [1]; [9]): increased
- granzyme B expression in CD8+ effector memory T cells (Fo5 tumors [1]; [9]): increased
- infiltration of CD8+ T cells expressing PD-1 in the tumor (Fo5 tumors [1]; tucatinib 50 mg/kg orally once daily, 10-14 days, vs vehicle, FIG. 1A): increase
- infiltration of CD8+ T cells expressing IFNγ in the tumor (Fo5 tumors [1]; tucatinib 50 mg/kg orally once daily, 10-14 days, vs vehicle, FIG. 1B): increase
- infiltration of CD8+ T cells expressing FOXP3 in the tumor (Fo5 tumors [1]; tucatinib 50 mg/kg orally once daily, 10-14 days, vs vehicle, FIG. 1C): increase
- CD4+ to CD8+ T cell ratio in the tumor (Fo5 tumors [1]; tucatinib 50 mg/kg orally once daily, 10-14 days, vs vehicle, FIG. 1D): moderate increase
- CD8+ effector memory (CD44+CD62L−) T cell frequency as a percentage of total CD8+ (H2N113 tumors [2]; [10]): increased
- PD-1+ expression of CD8+ effector memory T cells (H2N113 tumors [2]; [10]): significantly higher
- TIM3+ expression of CD8+ effector memory T cells (H2N113 tumors [2]; [10]): significantly higher
- CD8+ proportion (H2N113 tumors [2]; Example 4, after 14 days of tucatinib treatment vs vehicle): increased
- expression of Ki67 in CD8+ effector memory T cells (H2N113 tumors [2]; Example 4, day 14, FIG. 13A): increased expression
- interferon-7 expression in CD8+ effector memory T cells compared to vehicle treated controls (H2N113 tumors [2]; Example 4, day 14, FIG. 13B): significantly greater
- CD49b+ natural killer cell population proportion of CD45+CD3− lymphocytes (H2N113 tumors [2]; Example 4, day 14, FIG. 14): significantly increased
- CD103+ dendritic cells (H2N113 tumors [2]; [11]): significant increase
- MHC II+ macrophages (H2N113 tumors [2]; [11]): significant increase
- granulocytic MDSC as proportion of CD45.2+ lymphocytes (H2N113 tumors [2]; [11]): significant decrease
- neutrophils (CD11c-F4/80-CD11b+Ly6G+Ly6C+) as proportion of CD45.2+ lymphocytes (H2N113 tumors [2]; [11]): significant decrease
- suppressive MHC II low macrophages as proportion of CD45.2+ lymphocytes (H2N113 tumors [2]; [11]): significant decrease
- PD-L1 expression on CD45+ cells (total TILs) (H2N113 tumors [2]; Example 4, tucatinib vs vehicle treated TILs, FIG. 15A-15B): increased intensity
- infiltration of natural killer (NK) cells in the tumor (H2N113 tumors [2]; tucatinib 100 mg/kg orally once daily, 14 days): increase
- infiltration of CD8+ T cells in the tumor (H2N113 tumors [2]; tucatinib 100 mg/kg orally once daily, 14 days, vs vehicle, FIG. 2A): increase
- infiltration of CD4+ T cells not expressing FOXP3 in the tumor (H2N113 tumors [2]; tucatinib 100 mg/kg orally once daily, 14 days, FIG. 2B): increase
- infiltration of CD4+ T cells expressing FOXP3 in the tumor (H2N113 tumors [2]; tucatinib 100 mg/kg orally once daily, 14 days, FIG. 2C): increase
- infiltration of CD8+ T cells expressing Ki67 in the tumor (H2N113 tumors [2]; tucatinib 100 mg/kg orally once daily, 14 days, FIG. 2D): increase
- infiltration of CD8+ T cells expressing IFNγ in the tumor (H2N113 tumors [2]; tucatinib 100 mg/kg orally once daily, 14 days, FIG. 2E): increase
- infiltration of CD8+ T cells expressing PD-1 in the tumor (H2N113 tumors [2]; tucatinib 100 mg/kg orally once daily, 14 days, FIG. 2F): increase
- infiltration of CD8+ T cells expressing OX40 in the tumor (H2N113 tumors [2]; tucatinib 100 mg/kg orally once daily, 14 days, FIG. 2G): increase
- infiltration of CD8+ T cells expressing TIM3 in the tumor (H2N113 tumors [2]; tucatinib 100 mg/kg orally once daily, 14 days, FIG. 2H): increase
- infiltration of neutrophils in the tumor (H2N113 tumors [2]; tucatinib 100 mg/kg orally once daily, 14 days, FIG. 2J): decrease
- percentage of CD11 b dendritic cells in the tumor (H2N113 tumors [2]; tucatinib 100 mg/kg orally once daily, 14 days, FIG. 2K): increase
- percentage of MHC-II high in the tumor (H2N113 tumors [2]; [12]): increase
- percentage of MHC-II low in the tumor (H2N113 tumors [2]; [12]): decrease
- genes associated with favorable clinical response to checkpoint inhibitors (Fo5 tumors [3]; day 10 post treatment, differential gene expression, FIG. 21A-21D): upregulation
- genes related to immune cell function (Fo5 tumors [3]; day 10 post treatment, tucatinib 50 mg/kg vs vehicle, FIG. 17, 18A-18B): significant upregulation
- genes related to antigen presentation (Fo5 tumors [3]; day 10 post treatment, tucatinib 50 mg/kg vs vehicle, FIG. 19, 20A-20B): significant upregulation
- expression of genes predictive of response to immunotherapy (IFNγ-related gene expression signature, expanded immune signature) (Fo5 tumors [3]; stranded polyA RNA sequencing, tucatinib vs vehicle, FIG. 3A, 3B): increased expression
- tumor growth (Fo5 tumors [4]; tucatinib 25, 50, 100 mg/kg orally once daily vs vehicle, p<0.05): significantly inhibited tumor growth in a dose-dependent manner; also recorded: significant dose-dependent tumor growth inhibition
- survival (Fo5 tumors [4]; tucatinib at increasing doses vs vehicle, FIG. 9B): improved survival
- tumor growth (H2N113 tumors [5]; tucatinib at increasing doses by oral gavage vs vehicle): significant dose-dependent tumor growth inhibition
- survival (H2N113 tumors [5]; tucatinib at increasing doses vs vehicle, FIG. 8B): improved survival
- GI50 at 72 hours (BT474): nanomolar range
- GI50 at 72 hours (SKBR3): nanomolar range
- GI50 at 72 hours (H2N113): nanomolar range
- HER2 signaling pathway (phosphor-HER2 and total HER2) (HER2 signaling pathway [6]): Inhibition of the HER2 signaling pathway
- HER2 signaling pathway (phosphor-HER2 and total HER2) (HER2 signaling pathway [7]): Inhibition of the HER2 signaling pathway
- selectivity for HER2 compared to the closely related kinase EGFR (HER2): > 1000 fold
